Assay results published in US8287923B2, “Compositions and methods for treating immune disorders” (priority 2005, dated 2012).

Tested on: normal human epidermal keratinocytes (NHEK)
Test: Affymetrix gene array analysis, autoantigen gene expression
Type: cell-based
Procedure: The gene array experiment was performed at the Core Facility of Genomics of the Medical College of Georgia, according to the instructions of the manufacturer (Affymetrix, Santa Clara, Calif.). Briefly, NHEK and OSC2 cells treated with 100 μM EGCG for different time period were extracted for total RNA, the RNA was processed for probes and hybridized with a cDNA microarray (HuG133A, Affymetrix) which represents 22,283 human series. DNA chips were read with a Hewlett-Packard GeneArray Scanner at a resolution of […] and were analyzed with the GeneSpring software (Silicon Genetics, Redwood City, Calif.). Details of this analysis will be published elsewhere (Hsu et al., manuscript in preparation).
Gene assays provide a valuable tool for studying the broad response of cells to agents, and we have used this approach to compare the differential effects of GTPP on gene expression in NHEK and human oral squamous carcinoma cells (Hsu, et al, manuscript in preparation). […] See also Hsu, S. et al. (2005) JPET 315:805-811, which is incorporated by reference in its entirety.

## O=C(O[C@@H]1Cc2c(O)cc(O)cc2O[C@@H]1c1cc(O)c(O)c(O)c1)c1cc(O)c(O)c(O)c1 [EGCG, (−)-epigallocatechin-3-gallate]
100 uM EGCG, both cell types (NHEK, oral squamous carcinoma cells), 24 hrs post-treatment
  genes either up- or down-regulated by at least 2-fold: approximately 2100 genes
0.5 h, 100 μM
  60 kDa, SS-A/Ro (210438_x_at) expression, normalized: 0.71
  60 kDa, SS-A/Ro (212852_s_at) expression, normalized: 0.60
  Ku autoantigen, 80 kDa (208642_s_at) expression, normalized: 1.29
  Ku autoantigen, 80 kDa (208643_s_at) expression, normalized: 2.34
  Nuclear antigen SP100 (202863_at) expression, normalized: 1.72
  Nuclear antigen SP100 (202864_s_at) expression, normalized: 3.12
  Nuclear antigen SP10075 kDa (213226_at) expression, normalized: 3.99
  RNA polymerase 1 (202692_s-at) expression, normalized: 0.50
  SS-B/La (201138_s_at) expression, normalized: 0.84
  SS-B/La (201139_s_at) expression, normalized: 0.71
  centromere protein C1 (20473_at) expression, normalized: 1.27
  coilin (203653_s_at) expression, normalized: 0.49
  coilin (203654_s_at) expression, normalized: 1.11
  fodrin-α (208611_s_at) expression, normalized: 0.41
  fodrin-α (215235_s_at) expression, normalized: 0.49
  golgin-67 (208797_s_at) expression, normalized: 1.26
  golgin-67 (208798_x_at) expression, normalized: 0.81
  golgin-67 (210425_x_at) expression, normalized: 0.50
  golgin-67 (213650_at) expression, normalized: 0.24
  scleroderma autoantigen 1, 75 kDa (213226_at) expression, normalized: 3.99
  spectrin-β non-erythrocyctic 1 (212071_s_at) expression, normalized: 0.91
  thyroid autoantigen 70 kDa (Ku antigen) (200792_at) expression, normalized: 1.15
0.5 h, 100 μM, vs time zero
  ADPRT [poly(ADP)-ribose polymerase] expression: 3.547 fold
  ANAP12 expression: 0.505 fold
  ANXA11 expression: 1.043 fold
  CALR expression: 0.71 fold
  CBARA1 expression: 0.506 fold
  CENPA expression: 7.677 fold
  CENPB expression: 0.506 fold
  CENPC1 expression: 1.269 fold
  CHD4 expression: 0.766 fold
  COL17A1 expression: 1.749 fold
  CTDSP1 expression: 0.71 fold
  CTDSP2 expression: 1.61 fold
  CTDSPL expression: 2.83 fold
  DLAT expression: 1.54 fold
  EPPK1 expression: 0.793 fold
  FBL expression: 1.64 fold
  FLJ31657 expression: 0.833 fold
  FLNB (Filamin B, β) expression: 1.379 fold
  FLNB (Filamin B, γ) expression: 0.72 fold
  G22P1 (Thyroid autoantigen, 70 kDa, Ku antigen) expression: 1.15 fold
  GMEB2 expression: 0.584 fold
  GOLGA1 expression: 0.398 fold
  GOLGA2 expression: 0.332 fold
  GOLGA3 expression: 0.533 fold
  GOLGA4 expression: 0.822 fold
  GOLGA5 expression: 1.566 fold
  GOLGB1 expression: 0.969 fold
  HARS expression: 1.27 fold
  HARSL expression: 1.12 fold
  HSA6591 expression: 0.456 fold
  HUMAUANTIG expression: 0.948 fold
  IMP-2 expression: 1.615 fold
  LAD1 expression: 0.799 fold
  LMO4 expression (repeat 1): 0.272 fold
  LMO4 expression (repeat 2): 0.6 fold
  MGC5560 expression (repeat 1): 4.392 fold
  MGC5560 expression (repeat 2): 7.07 fold
  NS (Nucleostemin) expression: 0.634 fold
  PDHB expression: 1.079 fold
  PDX1 expression: 1.103 fold
  PMSCL1, 75 kDa expression: 3.993 fold
  PMSCL2 expression: 0.959 fold
  POLR1B expression: 0.67 fold
  POLR1D expression: 0.90 fold
  POLR2A expression (repeat 1): 0.13 fold
  POLR2A expression (repeat 2): 1.03 fold
  POLR2B expression: 1.83 fold
  POLR2C expression: 1.32 fold
  POLR2D expression: 1.14 fold
  POLR2E expression: 0.45 fold
  POLR2F expression: 0.90 fold
  POLR2G expression: 1.09 fold
  POLR2H expression: 0.88 fold
  POLR3C expression: 0.90 fold
  POLR3G expression: 1.55 fold
  PSME3 expression: 2.554 fold
  RALY expression: 1.556 fold
  SART1 expression: 1.982 fold
  SLC25A16 expression: 1.022 fold
  SNRP70 expression: 3.59 fold
  SNRPA expression: 1.29 fold
  SNRPB2 expression: 0.49 fold
  SNRPB expression (repeat 1): 0.96 fold
  SNRPB expression (repeat 2): 0.62 fold
  SNRPC expression: 1.28 fold
  SNRPD1 expression (repeat 1): 2.098 fold
  SNRPD1 expression (repeat 2): 0.755 fold
  SOX13 expression: 1.304 fold
  SP100 expression (repeat 1): 1.72 fold
  SP100 expression (repeat 2): 3.123 fold
  SP110 expression (repeat 1): 5.725 fold
  SP110 expression (repeat 2): 4.176 fold
  SP110 expression (repeat 3): 1.149 fold
  SPTAN1 (α-fodrin) expression (repeat 1): 0.41 fold
  SPTAN1 (α-fodrin) expression (repeat 2): 0.49 fold
  SPTBN expression: 0.91 fold
  SSA2 (autoantigen SS-A/Ro) expression (repeat 2): 0.709 fold
  SSA2 expression (repeat 1): 1.009 fold
  SSA2 expression (repeat 3): 0.505 fold
  SSA2 expression (repeat 4): 0.596 fold
  SSB (autoantigen La) expression (repeat 1): 0.838 fold
  SSB (autoantigen La) expression (repeat 2): 0.711 fold
  SSNA1 expression: 1.354 fold
  SSSCA1 expression: 1.267 fold
  STRN3 expression: 0.425 fold
  TOP1 expression (repeat 1): 0.85 fold
  TOP1 expression (repeat 2): 0.62 fold
  UBTF expression: 0.498 fold
  XRCC5 (Ku autoantigen, 80 kDa) expression (repeat 1): 2.338 fold
  XRCC5 (Ku autoantigen, 80 kDa) expression (repeat 2): 1.87 fold
  dJ963E22.1 expression: 1.842 fold
  α-NAC expression: 0.632 fold
